Experimental data from patent publication US20210395313A1, “PEPTIDE PAC1 ANTAGONISTS” (AMGEN INC., priority 2017, published 2021).
Where a SMILES comes first, the peptide text is derived from it. Bridges are numbered along the chain shown (N, C = ends). [ ]: non-standard residue; d: D form. SeMet = C[Se]CC[C@H](N)C(=O)O

Tests used:
human PAC1 receptor = target: T1, human PAC1 receptor (Homo sapiens, UniProt P41586); experiment: LANCE Ultra cAMP accumulation antagonist assay in SHSY-5Y cells; type: cell-based;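 also: inhibition of cAMP accumulation evoked by PAC1 agonist at its EC80 in SHSY-5Y cells endogenously expressing receptor, 30 min preincubation then 15 min agonist, TR-FRET readout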
T1 construct: SHSY-5Y (human neuroblastoma cell line) and RG-2 (rat glioma cell line) cells endogenously express human and rat PAC1 receptors, respectively; endogenous in cells; host or cells: SHSY-5Y human neuroblastoma cells
T1 sequence (P41586 21-468): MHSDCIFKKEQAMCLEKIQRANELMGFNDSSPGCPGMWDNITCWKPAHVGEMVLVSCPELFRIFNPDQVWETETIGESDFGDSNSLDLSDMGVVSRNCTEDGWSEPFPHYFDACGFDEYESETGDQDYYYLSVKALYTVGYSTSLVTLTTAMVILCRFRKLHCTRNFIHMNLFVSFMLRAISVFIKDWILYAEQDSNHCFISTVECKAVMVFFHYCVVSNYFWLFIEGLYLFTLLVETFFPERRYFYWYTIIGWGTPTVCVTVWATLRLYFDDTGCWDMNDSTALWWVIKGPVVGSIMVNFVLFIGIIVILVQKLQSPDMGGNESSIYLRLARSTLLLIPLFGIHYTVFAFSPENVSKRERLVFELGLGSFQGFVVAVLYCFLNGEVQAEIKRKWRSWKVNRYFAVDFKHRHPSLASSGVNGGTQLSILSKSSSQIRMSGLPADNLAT

rat PAC1 receptor = target: T2, rat PAC1 receptor (Rattus norvegicus, UniProt P32215); experiment: LANCE Ultra cAMP accumulation antagonist assay in RG-2 cells; type: cell-based;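 also: RG-2 rat glioma cells endogenously expressing PAC1, test peptide preincubated 30 min, then PAC1 agonist added at its EC80 for 15 min, cAMP accumulation read by LANCE Ultra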
T2 construct: SHSY-5Y (human neuroblastoma cell line) and RG-2 (rat glioma cell line) cells endogenously express human and rat PAC1 receptors, respectively; endogenous in cells; host or cells: RG-2 rat glioma cells
T2 sequence (P32215 20-523): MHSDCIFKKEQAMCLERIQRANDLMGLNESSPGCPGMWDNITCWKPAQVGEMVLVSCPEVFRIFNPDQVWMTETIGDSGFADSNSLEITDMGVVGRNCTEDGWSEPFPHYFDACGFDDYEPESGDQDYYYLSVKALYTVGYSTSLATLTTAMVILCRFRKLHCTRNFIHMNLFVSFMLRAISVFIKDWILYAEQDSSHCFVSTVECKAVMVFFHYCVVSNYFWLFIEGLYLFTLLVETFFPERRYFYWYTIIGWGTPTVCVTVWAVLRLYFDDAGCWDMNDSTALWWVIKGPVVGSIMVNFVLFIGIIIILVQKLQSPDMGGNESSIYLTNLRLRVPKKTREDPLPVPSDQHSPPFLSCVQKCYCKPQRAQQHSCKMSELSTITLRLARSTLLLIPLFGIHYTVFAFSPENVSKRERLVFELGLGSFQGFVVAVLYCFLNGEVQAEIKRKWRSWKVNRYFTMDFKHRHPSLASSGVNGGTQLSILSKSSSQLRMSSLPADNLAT

CC[C@H](C)[C@H](NC(=O)[C@H](C)NC(=O)[C@H](CCCCN)NC(=O)[C@H](CCCNC(=N)N)NC(=O)[C@H](Cc1ccccc1)NC(=O)[C@H](CCC(N)=O)NC(=O)[C@@H]1CSSC[C@H](N)C(=O)N[C@@H](CC(=O)O)C(=O)N[C@@H](C)C(=O)N[C@@H]([C@@H](C)O)C(=O)N1)C(=O)N[C@@H](CC(=O)O)C(=O)N[C@@H](CC(=O)O)C(=O)N[C@H]1CSSC[C@@H](C(=O)N[C@@H](CCSC)C(=O)N[C@@H](CCCCN)C(=O)N[C@@H](CCC(N)=O)C(=O)N[C@@H](CCCCN)C(=O)N[C@@H](CCCCN)C(=O)N[C@@H](CCCCN)C(=O)N[C@@H](CCC(=O)O)C(=O)N[C@@H](Cc2c[nH]c3ccccc23)C(=O)N[C@@H](CCCCN)C(=O)N[C@@H](C)C(=O)NCC(=O)N[C@@H](Cc2ccc(O)cc2)C(=O)O)NC(=O)[C@H](C)NC(=O)[C@H](CCCCN)NC(=O)[C@H](Cc2ccccc2)NC(=O)[C@H](C(C)C)NC(=O)[C@H](CO)NC(=O)[C@H](CO)NC(=O)[C@H](Cc2c[nH]cn2)NC(=O)[C@H](Cc2c[nH]cn2)NC(=O)[C@H](C)NC(=O)[C@H](CCC(N)=O)NC(=O)[C@H](CCCNC(=N)N)NC(=O)[C@H](C(C)C)NC1=O [compound 3] (H-CDATCQFRKAIDDCVRQAHHSSVFKACMKQKKKEWKAGY-OH; disulfide 1-5, 14-27) showed an IC50 (human PAC1 receptor) of 0.01 to 1 nM and an IC50 (rat PAC1 receptor) of 0.01 to 1 nM.
CSCC[C@H](NC(=O)[C@@H]1CSSC[C@H](NC(=O)[C@H](C)NC(=O)[C@@H](NC(=O)[C@H](CC(C)C)NC(=O)CNC(=O)[C@H](CCCCN)NC(=O)[C@H](CCCNC(=N)N)NC(=O)[C@H](Cc2ccc(O)cc2)NC(=O)[C@H](CCC(N)=O)NC(=O)[C@@H]2CSSC[C@H](N)C(=O)N[C@@H](CC(=O)O)C(=O)N[C@@H](C)C(=O)N[C@@H]([C@@H](C)O)C(=O)N2)C(C)C)C(=O)N[C@@H](C)C(=O)N[C@@H](CCCNC(=N)N)C(=O)N[C@@H](CCC(N)=O)C(=O)N[C@@H](C)C(=O)N[C@@H](Cc2ccc(O)cc2)C(=O)N[C@@H](Cc2c[nH]cn2)C(=O)N[C@@H](CO)C(=O)N[C@@H](CO)C(=O)N[C@@H](C(C)C)C(=O)N[C@@H](Cc2ccccc2)C(=O)N[C@@H](CCCCN)C(=O)N[C@@H](C)C(=O)N1)C(=O)N[C@@H](CCCCN)C(=O)N[C@@H](CCC(N)=O)C(=O)N[C@@H](CCCCN)C(=O)N[C@@H](CCCCN)C(=O)N[C@@H](CCCCN)C(=O)N[C@@H](CCC(=O)O)C(=O)N[C@@H](Cc1c[nH]c2ccccc12)C(N)=O [compound 5] (H-CDATCQYRKGLVACARQAYHSSVFKACMKQKKKEW-NH2; disulfide 1-5, 14-27) was tested, and the IC50 (human PAC1 receptor) was 1 to 100 nM and the IC50 (rat PAC1 receptor) was 1 to 100 nM.
Work on CC[C@H](C)[C@H](NC(=O)[C@H](C)NC(=O)[C@H](CCCCN)NC(=O)[C@H](CCCNC(=N)N)NC(=O)[C@H](Cc1ccccc1)NC(=O)[C@H](CCC(N)=O)NC(=O)[C@@H]1CSSC[C@H](N)C(=O)N[C@@H](CC(=O)O)C(=O)N[C@@H](C)C(=O)N[C@@H]([C@@H](C)O)C(=O)N1)C(=O)N[C@@H](CC(=O)O)C(=O)N[C@@H](CC(=O)O)C(=O)N[C@H]1CSSC[C@@H](C(=O)N[C@@H](CC[Se]C)C(=O)N[C@@H](CCCCN)C(=O)N[C@@H](CCC(N)=O)C(=O)N[C@@H](CCCCN)C(=O)N[C@@H](CCCCN)C(=O)N[C@@H](CCCCN)C(=O)N[C@@H](CCC(=O)O)C(=O)N[C@@H](Cc2c[nH]c3ccccc23)C(=O)N[C@@H](CCCCN)C(=O)N[C@@H](C)C(=O)NCC(N)=O)NC(=O)[C@H](C)NC(=O)[C@H](CCCCN)NC(=O)[C@H](Cc2ccccc2)NC(=O)[C@H](C(C)C)NC(=O)[C@H](CO)NC(=O)[C@H](CO)NC(=O)[C@H](Cc2c[nH]cn2)NC(=O)[C@H](Cc2ccc(O)cc2)NC(=O)[C@H](C)NC(=O)[C@H](CCC(N)=O)NC(=O)[C@H](CCCNC(=N)N)NC(=O)[C@H](C)NC1=O [compound 6] (H-CDATCQFRKAIDDCARQAYHSSVFKAC[SeMet]KQKKKEWKAG-NH2; disulfide 1-5, 14-27) yielded an IC50 (human PAC1 receptor) of 0.01 to 1 nM and an IC50 (rat PAC1 receptor) of 0.01 to 1 nM.
With CC[C@H](C)[C@H](NC(=O)[C@H](C)NC(=O)[C@H](CCCCN)NC(=O)[C@H](CCCNC(=N)N)NC(=O)[C@H](Cc1ccccc1)NC(=O)[C@H](CCC(N)=O)NC(=O)[C@@H]1CSSC[C@H](NC(=O)CN)C(=O)N[C@@H](CC(=O)O)C(=O)N[C@@H](C)C(=O)N[C@@H]([C@@H](C)O)C(=O)N1)C(=O)N[C@@H](CC(=O)O)C(=O)N[C@@H](CC(=O)O)C(=O)N[C@H]1CSSC[C@@H](C(=O)N[C@@H](CCSC)C(=O)N[C@@H](CCCCN)C(=O)N[C@@H](CCC(N)=O)C(=O)N[C@@H](CCCCN)C(=O)N[C@@H](CCCCN)C(=O)N[C@@H](CCCCN)C(=O)N[C@@H](CCC(=O)O)C(=O)N[C@@H](Cc2c[nH]c3ccccc23)C(=O)N[C@@H](CCCCN)C(=O)N[C@@H](C)C(=O)NCC(=O)N[C@@H](Cc2c[nH]cn2)C(=O)O)NC(=O)[C@H](C)NC(=O)[C@H](CCCCN)NC(=O)[C@H](Cc2ccccc2)NC(=O)[C@H](C(C)C)NC(=O)[C@H](CO)NC(=O)[C@H](CO)NC(=O)[C@H](Cc2c[nH]cn2)NC(=O)[C@H](Cc2c[nH]cn2)NC(=O)[C@H](C)NC(=O)[C@H](CCC(N)=O)NC(=O)[C@H](CCCNC(=N)N)NC(=O)[C@H](C(C)C)NC1=O [compound 15] (H-GCDATCQFRKAIDDCVRQAHHSSVFKACMKQKKKEWKAGH-OH; disulfide 2-6, 15-28) the IC50 (human PAC1 receptor) was 0.01 to 1 nM and the IC50 (rat PAC1 receptor) was 0.01 to 1 nM.
Work on CC[C@H](C)[C@H](NC(=O)[C@H](C)NC(=O)[C@H](CCCCN)NC(=O)[C@H](CCCNC(=N)N)NC(=O)[C@H](Cc1ccccc1)NC(=O)[C@H](CCC(N)=O)NC(=O)[C@@H]1CSSC[C@H](N)C(=O)N[C@@H](CC(=O)O)C(=O)N[C@@H](C)C(=O)N[C@@H]([C@@H](C)O)C(=O)N1)C(=O)N[C@@H](CC(=O)O)C(=O)N[C@@H](CC(=O)O)C(=O)N[C@H]1CSSC[C@@H](C(=O)N[C@@H](CCSC)C(=O)N[C@@H](CCCCN)C(=O)N[C@@H](CCC(N)=O)C(=O)N[C@@H](CCCCN)C(=O)N[C@@H](CCCCN)C(=O)N[C@@H](CCCCN)C(=O)N[C@@H](CCC(=O)O)C(=O)N[C@@H](Cc2c[nH]c3ccccc23)C(=O)N[C@@H](CCCCN)C(=O)N[C@@H](C)C(=O)NCC(N)=O)NC(=O)[C@H](C)NC(=O)[C@H](CCCCN)NC(=O)[C@H](Cc2ccccc2)NC(=O)[C@H](C(C)C)NC(=O)[C@H](CO)NC(=O)[C@H](CO)NC(=O)[C@H](Cc2c[nH]cn2)NC(=O)[C@H](Cc2c[nH]cn2)NC(=O)[C@H](C)NC(=O)[C@H](CCC(N)=O)NC(=O)[C@H](CCCNC(=N)N)NC(=O)[C@H](CC(=O)O)NC1=O [compound 16] (H-CDATCQFRKAIDDCDRQAHHSSVFKACMKQKKKEWKAG-NH2; disulfide 1-5, 14-27) yielded an IC50 (human PAC1 receptor) of 0.01 to 1 nM and an IC50 (rat PAC1 receptor) of 0.01 to 1 nM.
With CC[C@H](C)[C@H](NC(=O)[C@H](C)NC(=O)[C@H](CCCCN)NC(=O)[C@H](CCCNC(=N)N)NC(=O)[C@H](Cc1ccccc1)NC(=O)[C@H](CCC(N)=O)NC(=O)[C@@H]1CSSC[C@H](N)C(=O)N[C@@H](CC(=O)O)C(=O)N[C@@H](C)C(=O)N[C@@H]([C@@H](C)O)C(=O)N1)C(=O)N[C@@H](CC(=O)O)C(=O)N[C@@H](CC(=O)O)C(=O)N[C@H]1CSSC[C@@H](C(=O)N[C@@H](CCSC)C(=O)N[C@@H](CCCCN)C(=O)N[C@@H](CCC(N)=O)C(=O)N[C@@H](CCCCN)C(=O)N[C@@H](CCCCN)C(=O)N[C@@H](CCCCN)C(=O)N[C@@H](CCC(=O)O)C(=O)N[C@@H](Cc2ccccc2)C(=O)N[C@@H](CCCCN)C(=O)N[C@@H](C)C(=O)NCC(=O)N[C@@H](Cc2c[nH]cn2)C(=O)O)NC(=O)[C@H](C)NC(=O)[C@H](CCCCN)NC(=O)[C@H](Cc2ccccc2)NC(=O)[C@H](C(C)C)NC(=O)[C@H](CO)NC(=O)[C@H](CO)NC(=O)[C@H](Cc2c[nH]cn2)NC(=O)[C@H](Cc2c[nH]cn2)NC(=O)[C@H](C)NC(=O)[C@H](CCC(N)=O)NC(=O)[C@H](CCCCN)NC(=O)[C@H](C(C)C)NC1=O [compound 19] (H-CDATCQFRKAIDDCVKQAHHSSVFKACMKQKKKEFKAGH-OH; disulfide 1-5, 14-27) the IC50 (human PAC1 receptor) was 1 to 100 nM and the IC50 (rat PAC1 receptor) was 0.01 to 1 nM.
